What was measured:
[1] = Mean particle size of Compound (II)/silicone oil suspension by laser diffraction, with and without sonication; assay type: physicochemical; conditions: 20 weight % Compound (II) suspension after wet pulverization, before silicone oil addition
Protocol: Suspensions containing Compound (II) and silicone oil in the contents presented in Table 4 were prepared according to the following method. A 0.1% or 1% silicone oil emulsion prepared by diluting Dow Corning® 365, 35% Dimethicone NF Emulsion (produced by Dow Corning Corporation) in purified water was used as the silicone oil. A sodium carboxymethylcellulose/mannitol/sodium dihydrogenphosphate solution was used as a dispersion medium. The solids content of Compound (II) was adjusted to 10 to 20 weight %. No foaming occurred in any of the suspensions.
An aqueous suspension (200 mg Compound (II)/1.1 to 2 mL) containing Compound (II) and silicone oil was prepared as follows. Note that the Compound (II) suspension was prepared in the same manner as in Example 1 except that the pulverizing time using a high-pressure homogenizer was shortened.
A Compound (II) bulk powder was suspended in a dispersion medium at 20 weight %. […]
(§1) The mean particle size of the suspension prepared as described above was measured using a SALD-3000J or SALD-3100 Laser Diffraction Particle Size Analyzer (produced by Shimadzu Corporation). […]
(§2) Separately, the suspension was sonicated for 1 min with an ultrasonic wave generator attached to the particle size analyzer, and the mean particle size of the treated suspension was measured as described above.

[2] = Mean particle size of aripiprazole/silicone oil suspension by laser diffraction, with and without sonication; assay type: physicochemical; conditions: 20 weight % aripiprazole suspension after wet pulverization, before silicone oil addition
Protocol: Suspensions containing aripiprazole and silicone oil in the contents presented in Table 1 were prepared according to the following method. A 0.1% or 1% silicone oil emulsion prepared by diluting Dow Corning® 365, 35% Dimethicone NF Emulsion (produced by Dow Corning Corporation) in purified water was used as the silicone oil. A sodium carboxymethylcellulose/mannitol/sodium dihydrogenphosphate solution was used as a dispersion medium. The solids content of the aripiprazole was adjusted to about 10 to 20 weight %. No foaming occurred in any of the suspensions.
An aqueous suspension (200 mg aripiprazole/1.1 to 2 mL) containing aripiprazole (IM Depot) and silicone oil was prepared as follows.
Note that the aripiprazole suspension was prepared according to a wet pulverization method that uses a high-pressure homogenizer (see Japanese Patent Application No. 2007-200088 filed by Otsuka Pharmaceutical Co., Ltd.).
An aripiprazole hydrate bulk powder was suspended in a dispersion medium at 20 weight %. […]
as §1, §2

| Mean primary particle size of the resulting suspension [2] [μm] | Compound | Mean primary particle size of the resulting suspension [1] [μm] |
| --- | --- | --- |
|  | O=c1ccc2ccc(OCCCCN3CCN(c4cccc5sccc45)CC3)cc2[nH]1 [Compound (II), 7-[4-(4-benzo[b]thiophen-4-yl-piperazin-1-yl)butoxy]-1H-quinolin-2-one] | 5.3 |
| 2.0 | O=C1CCc2ccc(OCCCCN3CCN(c4cccc(Cl)c4Cl)CC3)cc2N1 [aripiprazole, Aripiprazole] |  |
